The results in this text go back to US20050176655A1, “Novel macrolide derivatives havaing effect of potentiating antifungal activity” (priority 2002, published 2005).

What all share (experiment): Paper disk method, enhancing action for activities of azole antifungal agents
Holding throughout (assay type): cell-based

The test system of test [1] is Candida albicans ATCC 64548. As to conditions: 24 hours; for Inhibition activity (inhibition ring mm) C. albicans ATCC 64548 GYM / Transparency of the inhibition ring C. albicans ATCC 64548 GYM: miconazole 0.03 μg/ml. The method, then: (§1) Test organisms used were Candida albicans ATCC 64548, fluconazole resistant Candida albicans ATCC 64550 and Aspergillus niger ATCC 6275. Candida spp. were cultured in Waksman broth (glucose 2.0%, peptone 0.5%, dry yeast 0.3%, meat extract 0.5%, NaCl 0.5% and CaCO3 0.3%, pH 7.0) at 27° C. for 40 hours, then 0.1% thereof was inoculated on GY agar medium (glucose 1.0%, yeast extract 0.5% and agar 0.8%, pH 6.0). Spore suspension 0.2% of Aspergillus niger ATCC 6275 was inoculated on GY agar medium.
(§2) Azole antifungal agents used were miconazole (Sigma Inc., the U.S.) and fluconazole (ICN Pharmaceuticals, Inc., the U.S.), and were added at concentrations without affecting growth on each test organisms follows.
Candida albicans ATCC 64548: miconazole 0.03 μg/ml or fluconazole 0.5 μg/ml.
(§3) In the above medium, a medium added with miconazole to GY medium (control) is designated as GYM, and a medium added with fluconazole is designated as GYF. Activities were assessed by means of paper disk method (thickness: 8 mm, ADVANTEC MFS INC., Japan). Diameter of inhibition ring is expressed with mm unit after culturing Candida spp. for 24 hours and Aspergillus niger ATCC 6275 for 48 hours. Transparency of the inhibition ring is assessed with 5 degrees of A, B, C, D and E (transparence<A<B<C<D<E<opaque).

Test [2] relates to fluconazole resistant Candida albicans ATCC 64550. Particulars: 24 hours; for Inhibition activity (inhibition ring mm) C. albicans ATCC 64550 GYM / Transparency of the inhibition ring C. albicans ATCC 64550 GYM: miconazole 0.15 μg/ml; for Inhibition activity (inhibition ring mm) C. albicans ATCC 64550 GYF / Transparency of the inhibition ring C. albicans ATCC 64550 GYF: fluconazole 30 μg/ml. The method, then: as §1, §2
Candida albicans ATCC 64550: miconazole 0.15 μg/ml or fluconazole 30 μg/ml.
as §3

The test system of test [3] is Aspergillus niger ATCC 6275. Particulars: 48 hours; for Inhibition activity (inhibition ring mm) A. niger ATCC 6275 GYM / Transparency of the inhibition ring A. niger ATCC 6275 GYM: miconazole 0.1 μg/ml; for Inhibition activity (inhibition ring mm) A. niger ATCC 6275 GY / Transparency of the inhibition ring A. niger ATCC 6275 GY: GY medium (control, no azole); for Inhibition activity (inhibition ring mm) A. niger ATCC 6275 GYF / Transparency of the inhibition ring A. niger ATCC 6275 GYF: fluconazole 10 μg/ml. The method, then: as §1, §2
Aspergillus niger ATCC 6275: miconazole 0.1 μg/ml or fluconazole 10 μg/ml.
as §3

Setting [4] is: 100 μg/8 mm disk, GYF, fluconazole 0.5 μg/ml.

On to `CCC(OC(C)=O)C(C)(O)C1OC(=O)C(C)C(OC2CC(C)(OC)C(OC(C)=O)C(C)O2)C(C)C(OC2OC(C)CC(N(C)C)C2O)C2(C)CC(C)=C(O2)C1C` (stereo not shown) [Compound 755, 4″,13-Di-O-acetyl-8,9-Anhydro-pseudo erythromycin A 6,9-hemiketal], for which, in test [1] (100 μg/8 mm disk), the “Inhibition activity (inhibition ring mm) C. albicans ATCC 64548 GYM” value is 17 mm; the “Transparency of the inhibition ring C. albicans ATCC 64548 GYM” value was “D (Growth of test organism was inhibited 35% or more and 55% or less.)”. In test [2] (100 μg/8 mm disk), the “Inhibition activity (inhibition ring mm) C. albicans ATCC 64550 GYM” value was determined as 10 mm and the “Transparency of the inhibition ring C. albicans ATCC 64550 GYM” value is listed as “E (Growth of test organism was inhibited 35% or less.)”. For the same compound, in test [3] (50 μg/8 mm disk), the “Inhibition activity (inhibition ring mm) A. niger ATCC 6275 GYM” value came to 16 mm and the “Transparency of the inhibition ring A. niger ATCC 6275 GYM” value is “E (Growth of test organism was inhibited 35% or less.)”.
On to `CCC(OC(C)=O)C(C)(O)C1OC(=O)C(C)C(OC2CC(C)(OC)C(OC(C)=O)C(C)O2)C(C)C(OC2OC(C)CC(NC)C2O)C2(C)CC(C)=C(O2)C1C` (stereo not shown) [Compound 756, 4″,13-Di-O-acetyl-de (3′-N-methyl)-8,9-Anhydro-pseudoerythromycin A 6,9-hemiketal], for which, in test [1] (100 μg/8 mm disk), the “Inhibition activity (inhibition ring mm) C. albicans ATCC 64548 GYM” value stood at 15 mm; the “Transparency of the inhibition ring C. albicans ATCC 64548 GYM” value was “D (Growth of test organism was inhibited 35% or more and 55% or less.)”. In test [2] (100 μg/8 mm disk), the “Inhibition activity (inhibition ring mm) C. albicans ATCC 64550 GYM” value is given as 10 mm and the “Transparency of the inhibition ring C. albicans ATCC 64550 GYM” value was “E (Growth of test organism was inhibited 35% or less.)”. Also, in test [3] (50 μg/8 mm disk), the “Inhibition activity (inhibition ring mm) A. niger ATCC 6275 GY” value is listed as 10 mm, the “Transparency of the inhibition ring A. niger ATCC 6275 GY” value is “E (Growth of test organism was inhibited 35% or less.)”, the “Inhibition activity (inhibition ring mm) A. niger ATCC 6275 GYF” value was found to be 14 mm and the “Transparency of the inhibition ring A. niger ATCC 6275 GYF” value is listed as “E (Growth of test organism was inhibited 35% or less.)”. In addition, in test [3] (50 μg/8 mm disk), the “Inhibition activity (inhibition ring mm) A. niger ATCC 6275 GYM” value came out at 14 mm and the “Transparency of the inhibition ring A. niger ATCC 6275 GYM” value is on record as “E (Growth of test organism was inhibited 35% or less.)”.
In the case of `CCC(OC(=O)c1ccccc1)C(C)(O)C1OC(=O)C(C)C(OC2CC(C)(OC)C(OC(=O)c3ccccc3)C(C)O2)C(C)C(OC2OC(C)CC(N(C)C)C2OC(=O)c2ccccc2)C2(C)CC(C)=C(O2)C1C` (stereo not shown) [Compound 770, 2′,4″,13-Tri-O-benzoyl-8,9-Anhydro-pseudoerythromycin A 6,9-hemiketal], in test [1] (10 μg/8 mm disk), the “Inhibition activity (inhibition ring mm) C. albicans ATCC 64548 GYM” value came to 11 mm; the “Transparency of the inhibition ring C. albicans ATCC 64548 GYM” value is “D (Growth of test organism was inhibited 35% or more and 55% or less.)”. Further, in test [1] (50 μg/8 mm disk), the “Inhibition activity (inhibition ring mm) C. albicans ATCC 64548 GYM” value is reported as 14 mm; the “Transparency of the inhibition ring C. albicans ATCC 64548 GYM” value was “C (Growth of test organism was inhibited 55% or more and 75% or less.)”. Further, in test [1] (setting [4]), the “Inhibition activity (inhibition ring mm) C. albicans ATCC 64548 GYF” value is given as 11 mm; the “Transparency of the inhibition ring C. albicans ATCC 64548 GYF” value is “D (Growth of test organism was inhibited 35% or more and 55% or less.)”. In test [2] (50 μg/8 mm disk), the “Inhibition activity (inhibition ring mm) C. albicans ATCC 64550 GYF” value is 13 mm; the “Transparency of the inhibition ring C. albicans ATCC 64550 GYF” value was “C (Growth of test organism was inhibited 55% or more and 75% or less.)”; the “Inhibition activity (inhibition ring mm) C. albicans ATCC 64550 GYM” value was determined as 13 mm; the “Transparency of the inhibition ring C. albicans ATCC 64550 GYM” value is recorded as “A (Growth of test organism was inhibited 95% or more.)”. Further, in test [3] (10 μg/8 mm disk), the “Inhibition activity (inhibition ring mm) A. niger ATCC 6275 GYF” value is reported as 11 mm and the “Transparency of the inhibition ring A. niger ATCC 6275 GYF” value was “E (Growth of test organism was inhibited 35% or less.)”. In test [3] (50 μg/8 mm disk), the “Inhibition activity (inhibition ring mm) A. niger ATCC 6275 GY” value came to 11 mm, the “Transparency of the inhibition ring A. niger ATCC 6275 GY” value is “E (Growth of test organism was inhibited 35% or less.)”, the “Inhibition activity (inhibition ring mm) A. niger ATCC 6275 GYF” value is on record as 18 mm and the “Transparency of the inhibition ring A. niger ATCC 6275 GYF” value is reported as “E (Growth of test organism was inhibited 35% or less.)”. For the same compound, in test [3] (50 μg/8 mm disk), the “Inhibition activity (inhibition ring mm) A. niger ATCC 6275 GYM” value is on record as 12 mm and the “Transparency of the inhibition ring A. niger ATCC 6275 GYM” value is “E (Growth of test organism was inhibited 35% or less.)”.
Take `CCC1OC1(C)C1OC(=O)C(C)C(OC2CC(C)(OC)C(OS(=O)(=O)c3ccccc3)C(C)O2)C(C)C(OC2OC(C)CC(N(C)C)C2OC(C)=O)C2(C)CC(C)=C(O2)C1C` (stereo not shown) [Compound 774, 2′-O-acetyl-4″-O-benzenesulfonyl-12,13-epoxy-8,9-Anhydro-pseudoerythromycin A 6,9-hemiketal]: in test [2] (10 μg/8 mm disk), the “Inhibition activity (inhibition ring mm) C. albicans ATCC 64550 GYF” value amounted to 13 mm, the “Transparency of the inhibition ring C. albicans ATCC 64550 GYF” value is listed as “A (Growth of test organism was inhibited 95% or more.)”, the “Inhibition activity (inhibition ring mm) C. albicans ATCC 64550 GYM” value worked out at 14 mm and the “Transparency of the inhibition ring C. albicans ATCC 64550 GYM” value is on record as “A (Growth of test organism was inhibited 95% or more.)”. In test [2] (50 μg/8 mm disk), the “Inhibition activity (inhibition ring mm) C. albicans ATCC 64550 GYF” value amounted to 17 mm, the “Transparency of the inhibition ring C. albicans ATCC 64550 GYF” value was “A (Growth of test organism was inhibited 95% or more.)”, the “Inhibition activity (inhibition ring mm) C. albicans ATCC 64550 GYM” value was 17 mm and the “Transparency of the inhibition ring C. albicans ATCC 64550 GYM” value is reported as “A (Growth of test organism was inhibited 95% or more.)”. In addition, in test [3] (10 μg/8 mm disk), the “Inhibition activity (inhibition ring mm) A. niger ATCC 6275 GYF” value is 14 mm, the “Transparency of the inhibition ring A. niger ATCC 6275 GYF” value is on record as “E (Growth of test organism was inhibited 35% or less.)”, the “Inhibition activity (inhibition ring mm) A. niger ATCC 6275 GYM” value was 13 mm and the “Transparency of the inhibition ring A. niger ATCC 6275 GYM” value was “E (Growth of test organism was inhibited 35% or less.)”. Further, in test [3] (50 μg/8 mm disk), the “Inhibition activity (inhibition ring mm) A. niger ATCC 6275 GYF” value is recorded as 17 mm; the “Transparency of the inhibition ring A. niger ATCC 6275 GYF” value is reported as “E (Growth of test organism was inhibited 35% or less.)”; the “Inhibition activity (inhibition ring mm) A. niger ATCC 6275 GYM” value is listed as 18 mm; the “Transparency of the inhibition ring A. niger ATCC 6275 GYM” value is “D (Growth of test organism was inhibited 35% or more and 55% or less.)”.
As to `CCC1OC1(C)C1OC(=O)C(C)C(OC2CC(C)(OC)C(OS(=O)(=O)Cc3ccccc3)C(C)O2)C(C)C(OC2OC(C)CC(N(C)C)C2O)C2(C)CC(C)=C(O2)C1C` (stereo not shown) [Compound 780, 4″-O-benzylsulfonyl-12,13-epoxy-8,9-anhydro-pseudoerythromycin A. 6,9-hemiketal], in test [2] (50 μg/8 mm disk), the “Inhibition activity (inhibition ring mm) C. albicans ATCC 64550 GYF” value was found to be 14 mm; the “Transparency of the inhibition ring C. albicans ATCC 64550 GYF” value is “C (Growth of test organism was inhibited 55% or more and 75% or less.)”; the “Inhibition activity (inhibition ring mm) C. albicans ATCC 64550 GYM” value amounted to 12 mm; the “Transparency of the inhibition ring C. albicans ATCC 64550 GYM” value is “C (Growth of test organism was inhibited 55% or more and 75% or less.)”. In test [3] (10 μg/8 mm disk), the “Inhibition activity (inhibition ring mm) A. niger ATCC 6275 GYF” value was 11 mm, the “Transparency of the inhibition ring A. niger ATCC 6275 GYF” value is “E (Growth of test organism was inhibited 35% or less.)”, the “Inhibition activity (inhibition ring mm) A. niger ATCC 6275 GYM” value worked out at 14 mm and the “Transparency of the inhibition ring A. niger ATCC 6275 GYM” value is recorded as “E (Growth of test organism was inhibited 35% or less.)”. Also, in test [3] (50 μg/8 mm disk), the “Inhibition activity (inhibition ring mm) A. niger ATCC 6275 GY” value is listed as 12 mm, the “Transparency of the inhibition ring A. niger ATCC 6275 GY” value is “E (Growth of test organism was inhibited 35% or less.)”, the “Inhibition activity (inhibition ring mm) A. niger ATCC 6275 GYF” value turned out to be 12 mm and the “Transparency of the inhibition ring A. niger ATCC 6275 GYF” value is recorded as “E (Growth of test organism was inhibited 35% or less.)”. Besides, in test [3] (50 μg/8 mm disk), the “Inhibition activity (inhibition ring mm) A. niger ATCC 6275 GYM” value is recorded as 14 mm and the “Transparency of the inhibition ring A. niger ATCC 6275 GYM” value is given as “E (Growth of test organism was inhibited 35% or less.)”.
